Test results taken from patent publication US20150164762A1, “USE OF ETHANOLAMINE PHOSPHATE” (priority 2012, published 2015).
“And” between values parts separate entries of the source, which are not always exact repeats. Equal values may be shown once.

Test system: BEAS-2B
Test: Comprehensive gene expression analysis with Whole Human Genome DNA microarray after EP treatment
Assay type: cell-based
Protocol: Cells of the established normal human airway epithelial cell line BEAS-2B were used in the experiment. These cells were expansively cultured in 10% FBS RPMI-1640, and seeded at a density of 1×10^5/cm^2 on a 24-well plate. After 24 hours 0.1% FBS RPMI-1640 was substituted, and EP was administered to a final concentration of 0 or 1 mM (n=4). After 24 hours, the cells were used as the DNA microarray samples. RNA was extracted using a QIAGEN RNeasy Mini Kit. The DNA microarray test was performed using a Whole Human Genome DNA microarray 4×44K (Agilent), and the necessary labeling reagents and the like for the DNA microarray test were all from Agilent. The DNA microarray test data were analyzed statistically with GeneSpring (Agilent) dedicated analysis software, and gene function analysis (Gene Ontology (GO) analysis) was performed based on differential expression. The purpose of the GO analysis is to determine stochastically the degree to which gene sets with statistically significant differential expression correspond to known functional classification gene sets. […] The p-value is calculated according to the following formula.

[1] = probe A_23_P1361, NM_002860, EP vs control
[2] = probe A_23_P5392, 1 mM EP, 24 h
[3] = probe A_23_P8961, NM_000880, EP vs control
[4] = probe A_23_P15247, 1 mM EP, 24 h
[5] = probe A_23_P16523, NM_004864, EP vs control
[6] = probe A_23_P21134, 1 mM EP, 24 h
[7] = probe A_23_P23960, 1 mM EP, 24 h
[8] = probe A_23_P25354, 1 mM EP, 24 h
[9] = probe A_23_P28625, 1 mM EP, 24 h
[10] = probe A_23_P29754, NM_203314, EP vs control
[11] = probe A_23_P30122, NM_000586, EP vs control
[12] = probe A_23_P34804, 1 mM EP, 24 h
[13] = probe A_23_P37736, 1 mM EP, 24 h
[14] = probe A_23_P40453, NM_001236, EP vs control
[15] = probe A_23_P45133, NM_27087, EP vs control
[16] = probe A_23_P48740, NM_013989, EP vs control
[17] = probe A_23_P51361, NM_175852, EP vs control
[18] = probe A_23_P53467, 1 mM EP, 24 h
[19] = probe A_23_P54144, 1 mM EP, 24 h
[20] = probe A_23_P55544, 1 mM EP, 24 h
[21] = probe A_23_P56922, 1 mM EP, 24 h
[22] = probe A_23_P56933, 1 mM EP, 24 h
[23] = probe A_23_P58180, NM_207352, EP vs control
[24] = probe A_23_P62959, 1 mM EP, 24 h
[25] = probe A_23_P63898, 1 mM EP, 24 h
[26] = probe A_23_P64129, NM_006410, EP vs control
[27] = probe A_23_P64129, 1 mM EP, 24 h
[28] = probe A_23_P67169, NM_000641, EP vs control
[29] = probe A_23_P68487, NM_001719, EP vs control
[30] = probe A_23_P69030, 1 mM EP, 24 h
[31] = probe A_23_P70398, NM_001025370, EP vs control
[32] = probe A_23_P72096, NM_000575, EP vs control
[33] = probe A_23_P72096, 1 mM EP, 24 h
[34] = probe A_23_P72285, 1 mM EP, 24 h
[35] = probe A_23_P74081, 1 mM EP, 24 h
[36] = probe A_23_P74380, 1 mM EP, 24 h
[37] = probe A_23_P76078, NM_016584, EP vs control
[38] = probe A_23_P81805, NM_001025366, EP vs control
[39] = probe A_23_P82550, 1 mM EP, 24 h
[40] = probe A_23_P87560, 1 mM EP, 24 h
[41] = probe A_23_P88404, 1 mM EP, 24 h
[42] = probe A_23_P88589, 1 mM EP, 24 h
[43] = probe A_23_P89550, 1 mM EP, 24 h
[44] = probe A_23_P89835, 1 mM EP, 24 h
[45] = probe A_23_P90601, NM_182915, EP vs control
[46] = probe A_23_P91504, 1 mM EP, 24 h

## NCCOP(=O)(O)O [EP, Ethanolamine phosphate]
P2RX7, probe A_23_P25354
  R*: Ratio to control: 0.561 times
  log2 [ratio]: −0.834
P2RX7, probe A_24_P319113
  R*: Ratio to control: 0.586 times
  log2 [ratio]: −0.772
PERP, probe A_23_P214950
  R*: Ratio to control: 0.521 times
  log2 [ratio]: −0.941
PHLDA3, probe A_23_P62959
  R*: Ratio to control: 0.271 times
  log2 [ratio]: −1.884
PLK1, probe A_23_P118174
  R*: Ratio to control: 2.447 times
  log2 [ratio]: 1.291
PLK1, probe A_24_P313504
  R*: Ratio to control: 1.939 times
  log2 [ratio]: 0.955
PMAIP1, probe A_23_P207999
  R*: Ratio to control: 0.344 times
  log2 [ratio]: −1.540
PML, probe A_23_P358944
  R*: Ratio to control: 0.586 times
  log2 [ratio]: −0.770
PPAP2B, probe A_23_P201808
  R*: Ratio to control: 1.919 times
  log2 [ratio]: 0.941
ROBO4, probe A_23_P104881
  R*: Ratio to control: 1.785 times
  log2 [ratio]: 0.836
ROBO4, probe A_23_P344421
  R*: Ratio to control: 1.633 times
  log2 [ratio]: 0.707
RTN4, probe A_23_P56933
  R*: Ratio to control: 1.510 times
  log2 [ratio]: 0.594
SEMA4D, probe A_24_P261169
  R*: Ratio to control: 0.558 times
  log2 [ratio]: −0.842
SEPT4, probe A_23_P207003
  R*: Ratio to control: 0.503 times
  log2 [ratio]: −0.990
SKP2, probe A_23_P156310
  R*: Ratio to control: 1.531 times
  log2 [ratio]: 0.615
SOX7, probe A_23_P169738
  R*: Ratio to control: 0.362 times
  log2 [ratio]: −1.464
SOX7, probe A_23_P306987
  R*: Ratio to control: 0.338 times
  log2 [ratio]: −1.566
SOX7, probe A_24_P226782
  R*: Ratio to control: 0.607 times
  log2 [ratio]: −0.720
SST, probe A_23_P252817
  R*: Ratio to control: 0.666 times
  log2 [ratio]: −0.587
TACSTD2, probe A_23_P149529
  R*: Ratio to control: 1.507 times
  log2 [ratio]: 0.591
TGFBR2, probe A_23_P211957
  R*: Ratio to control: 1.634 times
  log2 [ratio]: 0.708
TGFBR2, probe A_23_P337242
  R*: Ratio to control: 1.630 times
  log2 [ratio]: 0.705
TNFRSF17, probe A_23_P37736
  R*: Ratio to control: 2.525 times
  log2 [ratio]: 1.336
VEGFC, probe A_23_P167096
  R*: Ratio to control: 1.637 times
  log2 [ratio]: 0.711
WARS2, probe A_23_P74380
  R*: Ratio to control: 1.594 times
  log2 [ratio]: 0.673
WDR12, probe A_23_P28625
  R*: Ratio to control: 1.676 times
  log2 [ratio]: 0.745
ZFPM2, probe A_23_P168909
  R*: Ratio to control: 1.678 times
  log2 [ratio]: 0.746
[1]
  ALDH18A1 gene expression, R* ratio to control: 1.460 times
  ALDH18A1 gene expression, log2 [ratio]: 0.546
[2]
  TP53I3 expression R*: Ratio to control: 0.423 times
  TP53I3 expression log2 [ratio]: −1.241
[3]
  IL7 gene expression, R* ratio to control: 0.103 times
  IL7 gene expression, log2 [ratio]: −3.273
[4]
  C16orf5 expression R*: Ratio to control: 0.519 times
  C16orf5 expression log2 [ratio]: −0.947
[5]
  GDF15 gene expression, R* ratio to control: 0.104 times
  GDF15 gene expression, log2 [ratio]: −3.265
[6]
  DDIT3 expression R*: Ratio to control: 0.210 times
  DDIT3 expression log2 [ratio]: −2.249
[7]
  BLOC1S2 expression R*: Ratio to control: 0.398 times
  BLOC1S2 expression log2 [ratio]: −1.336
[8]
  P2RX7 expression R: Ratio to control: 0.661 times
  P2RX7 expression log2 [ratio]: −0.834
[9]
  WDR12 expression R*: Ratio to control: 1.676 times
  WDR12 expression log2 [ratio]: 0.745
[10]
  BDH1 gene expression, R* ratio to control: 1.462 times
  BDH1 gene expression, log2 [ratio]: 0.548
[11]
  IL2 gene expression, R* ratio to control: 0.537 times
  IL2 gene expression, log2 [ratio]: −0.898
[12]
  NTRK1 expression R: Ratio to control: 0.261 times
  NTRK1 expression log2 [ratio]: −1.936
[13]
  TNFRSF17 expression R*: Ratio to control: 2.525 times
  TNFRSF17 expression log2 [ratio]: 1.336
[14]
  CBR3 gene expression, R* ratio to control: 1.406 times
  CBR3 gene expression, log2 [ratio]: 0.491
[15]
  CSF1 gene expression, R* ratio to control: 0.602 times
  CSF1 gene expression, log2 [ratio]: −0.732
[16]
  DIO2 gene expression, R* ratio to control: 1.694 times
  DIO2 gene expression, log2 [ratio]: 0.761
[17]
  TXLNA gene expression, R* ratio to control: 0.560 times
  TXLNA gene expression, log2 [ratio]: −0.837
[18]
  IKBIP expression R*: Ratio to control: 0.626 times
  IKBIP expression log2 [ratio]: −0.675
[19]
  BMP4 expression R*: Ratio to control: 1.820 times
  BMP4 expression log2 [ratio]: 0.864
[20]
  CCBE1 expression R*: Ratio to control: 1.755 times
  CCBE1 expression log2 [ratio]: 0.811
[21]
  HSPE1 expression R*: Ratio to control: 1.531 times
  HSPE1 expression log2 [ratio]: 0.615
[22]
  RTN4 expression R*: Ratio to control: 1.510 times
  RTN4 expression log2 [ratio]: 0.594
[23]
  CYP4V2 gene expression, R* ratio to control: 2.178 times
  CYP4V2 gene expression, log2 [ratio]: 1.123
[24]
  PHLDA3 expression R: Ratio to control: 0.271 times
  PHLDA3 expression log2 [ratio]: −1.884
[25]
  FAS expression R*: Ratio to control: 0.364 times
  FAS expression log2 [ratio]: −1.457
[26]
  HTATIP2 gene expression, R* ratio to control: 1.735 times
  HTATIP2 gene expression, log2 [ratio]: 0.795
[27]
  HTATIP2 expression R*: Ratio to control: 1.735 times
  HTATIP2 expression log2 [ratio]: 0.795
[28]
  IL11 gene expression, R* ratio to control: 0.358 times
  IL11 gene expression, log2 [ratio]: −1.482
[29]
  BMP7 gene expression, R* ratio to control: 0.136 times
  BMP7 gene expression, log2 [ratio]: −2.883
[30]
  COL8A1 expression R*: Ratio to control: 1.999 times
  COL8A1 expression log2 [ratio]: 0.999
[31]
  VEGFA gene expression, R* ratio to control: 0.501 times
  VEGFA gene expression, log2 [ratio]: −0.997
[32]
  IL1A gene expression, R* ratio to control: 0.216 times
  IL1A gene expression, log2 [ratio]: −2.211
[33]
  IL1A expression R*: Ratio to control: 0.216 times
  IL1A expression log2 [ratio]: −2.211
[34]
  YWHAE expression R*: Ratio to control: 1.529 times
  YWHAE expression log2 [ratio]: 0.813 and 0.613
[35]
  TP73 expression R*: Ratio to control: 0.557 times
  TP73 expression log2 [ratio]: −0.843
[36]
  WARS2 expression R*: Ratio to control: 1.594 times
  WARS2 expression log2 [ratio]: 0.673
[37]
  IL23A gene expression, R* ratio to control: 0.508 times
  IL23A gene expression, log2 [ratio]: −0.977
[38]
  VEGFA gene expression, R* ratio to control: 0.611 times
  VEGFA gene expression, log2 [ratio]: −0.710
[39]
  STK17A expression R*: Ratio to control: 0.623 times
  STK17A expression log2 [ratio]: −0.683
[40]
  BTG1 expression R*: Ratio to control: 0.41B
  BTG1 expression log2 [ratio]: −1.265
[41]
  TGFB3 expression R*: Ratio to control: 0.590 times
  TGFB3 expression log2 [ratio]: −0.761
[42]
  NR2F2 expression R*: Ratio to control: 1.662 times
  NR2F2 expression log2 [ratio]: 0.733
[43]
  NLRP1 expression R*: Ratio to control: 0.483 times
  NLRP1 expression log2 [ratio]: −1.048
[44]
  MAPRE2 expression R*: Ratio to control: 1.538 times
  MAPRE2 expression log2 [ratio]: 0.621
[45]
  STEAP3 gene expression, R* ratio to control: 2.194 times
  STEAP3 gene expression, log2 [ratio]: 1.134
[46]
  ITSN1 expression R*: Ratio to control: 3.487 times
  ITSN1 expression log2 [ratio]: 1.802
Probe A_23_P92025, 1 mM EP, 24 h
  CIDEC expression R*: Ratio to control: 0.593 times
